Reference: publication PMC7667655, “Targeted Covalent Inhibition of Plasmodium FK506 Binding Protein 35” (ACS Medicinal Chemistry Letters, 2020)
Entries after “also recorded” stand apart in the source; their conditions may differ.

How the values were obtained:
[1] = biological target: T1, FKBP12 (Homo sapiens, UniProt P62942); experiment: Differential scanning calorimetry, FKBP12; assay type: binding; conditions: compound 40 µM
T1 construct: 6His-SUMO (N, cleaved yes); made in house; host or cells: E. coli (identical protocol to FBD35, BL21 DE3)

[2] = biological target: T2, FKBP35 (Plasmodium falciparum, UniProt Q8I4V8); experiment: Time course of covalent modification by LC-MS; assay type: biochemical; conditions: for K, rate of FKBP35 consumption: 2250 nM inhibitor : 450 nM FKBP35, 23 °C, one phase decay fit; for K’, rate of covalent adduct formation: 2250 nM inhibitor : 450 nM FKBP35, exponential plateau fit
T2 construct: FKBP35 Q5 -A128; 6His-SUMO (N, cleaved yes); made in house; host or cells: E. coli BL21 DE3
Text: RT=5.2). B. Overlay of mass determinations from LC traces in (A). FBD35 only (black, m/z = […]
chromatogram corresponding to Figure 4c detecting the CAM -peptide […] at […]
m/z 855.8668. D. Mass spec chromatogram corresponding to Figure 4d detecting the CAM - […]
peptide […] at m/z 855.8670. E. Mass spec chromatogram corresponding to Figure 4e which was unable to detect the mass of the 1c-inclusion peptide. F. Mass spec chromatogram corresponding to Figure 4f detecting the 1c-inclusion peptide […]
Figure S2. Time course of covalent modification. In order to compare rates of covalent modification, compounds 1a-c, 2a, and 2c were incubated with FKBP35 in a 5:1 ratio (2250 nM inhibitor : 450 nM FKBP35) and FKBP35 consumption or modification determined by LC -MS. A.
The concentration of residual FKBP35 as a function of time. Data was fit to an exponential “one phase decay” model which was used to calculate the rate (K) and half -life (t1/2) of the reaction.
The loss of FKBP35 in the DMSO and 1b controls is likely due to adsorption onto the vial. B.
Concentration of covalent adduct as a function of time. Data was fit to an “exponential plateau” regression model, which was used to calculate the rate of formation (K’). Compound 1b, which […]
C. Tabulated rates calculated from the regressions in A and B. The rates of FKBP35 consumption correlate strongly with the rates of […]
(also on this page, place not known: -inclusion 1c 0 20 40 60 0 200 400 600 Time (hours) FKBP35 (nM) Consumption of FKBP35 1a 1b 1c 2a 2c DMSO 0 20 40 60 0 200 400 600 Time (hours) Covalent Adduct (nM) Formation of Covalent Adduct 1a 1b 1c 2a 2c A B) […]
(1 picture or pasted object on this page, not shown here)
Experiments were performed using 0.4 mg/mL concentration of wild -type or mutant protein (6 - 9 uM), with and without synthes ized compounds at 40 µM and 2% DMSO (V/V). The respective reference scans were run under identical DSC conditions and subtracted from each sample scan.
The program was run in a continuous acquisition mode from 25°C to 90°C at a rate of 120C/h The heat capacity curves and midpoint temperature (Tm) were analyzed using Origin 7.0 software.
Fluorescence Polarization
The fluorescent tracer SLFb-2PEG-TAMRA was diluted in DMSO to 100 nM (100x stock concentration). FKBP proteins were diluted in assay buffer (150 mM NaCl, 20 mM HEPES pH 7.5, 0.002% Triton X -100) to the indicated concentration. 100x DMSO tracer stock was added to the protein buffer solution to a 1X final concentration and 20 µL of the mixture was aliquoted into each well of a black 384 -well assay plate (No. 3820, Corning Life Sciences). The plate was briefly centrifuged to remove bubbles. Using a d300e digital dispenser (Tecan), competitive ligands (10 mM stock in DMSO) were aliquoted in triplicate in an 8 -point 3x dilution series (30 µM to 13.7 nM final concentra tion) and normalized to 2% total DMSO concentration. Following incubation at room temperature (RT) for one hour, fluorescence polarization was measured using an EnVision Multimode Plate Reader (PerkinElmer) with the TAMRA Dual -FP mirror and filter kit. […]
analyzed in GraphPad Prism 8 by fitting the data to the “One Site – Fit Ki” model to obtain the […]
Time Course Analysis of Covalent Inhibition
The following analy sis was performed as described on two different days, yielding similar results.
One replicate is shown for clarity. In 1.5 mL snap -top tubes, ligands 1a, 1b, 1c, 2a, and 2c were each diluted to 450 μM in DMSO to produce 200x stock solutions. In a separate 1.5 mL snap-top tube, isolated FKBP35 protein was diluted to 90 μM in the reaction buffer (150 mM NaCl, 20 mM HEPES pH = 7.5) to produce a 200x stock solution. In 2 mL glass mass spec vials, 5 μL of each 200x ligand solution was diluted in 990 μL reaction buffer. Immediately prior to injection of each t=0 time point, 5 μL of the 200x protein solution was added to the mass spec vial and mixed. Samples were analyzed using the Waters BioAccord LC-ToF (composed of an ACQUITY I -Class UPLC and […]

T2 sequence (Q8I4V8 5-128): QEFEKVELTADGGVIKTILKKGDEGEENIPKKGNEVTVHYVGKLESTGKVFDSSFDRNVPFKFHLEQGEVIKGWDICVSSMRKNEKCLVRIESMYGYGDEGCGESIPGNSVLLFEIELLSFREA
T1 sequence (P62942 whole entry): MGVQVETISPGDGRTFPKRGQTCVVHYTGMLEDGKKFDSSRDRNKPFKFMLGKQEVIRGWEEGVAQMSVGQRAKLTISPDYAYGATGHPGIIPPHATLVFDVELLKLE

Row | SMILES | ΔTm at 40 µM [1] [°C] | covalent adduct formation (in words) ([2]; LC-MS time course) | K, rate of FKBP35 consumption [2] [h⁻¹] | K’, rate of covalent adduct formation [2] [h⁻¹]
1 | CCC(=O)Nc1cccc([C@@H](CCc2ccc(OC)c(OC)c2)OC(=O)[C@@H]2CCCCN2C(=O)C(=O)C(C)(C)CC)c1 [1b] | 6.8 | no binding; also recorded: does not form any adduct |  | 
2 | C=CC(=O)OCC(C)(C)C(=O)C(=O)N1CCCC[C@H]1C(=O)O[C@H](CCc1ccc(OC)c(OC)c1)c1ccccc1 [2c] | 5.2 |  | 0.8871 | 0.9298
3 | C=CC(=O)Nc1ccccc1[C@@H](CCc1ccc(OC)c(OC)c1)OC(=O)[C@@H]1CCCCN1C(=O)C(=O)C(C)(C)CC [1c] | 3.2 |  | 0.1132 | 0.1128
4 | C=CC(=O)Nc1cccc([C@@H](CCc2ccc(OC)c(OC)c2)OC(=O)[C@@H]2CCCCN2C(=O)C(=O)C(C)(C)CC)c1 [1a] | 5.6 |  | 0.0724 | 0.05948
